In the kinase profiling compilation of Christmann-Franck et al. (2016):

Legend:
Assay in all cases: radiometric filter-binding kinase assay, Kinase HotSpot
Settings in all cases: compound 0.5 µM; ATP 10 µM
BRSK1 (human) = BRSK1 (human) (UniProt Q8TDC3)
EPHA2 (human) = EPHA2 (human) (UniProt P29317)
KDR (human) = KDR (human) (UniProt P35968)
TEK (human) = TEK (human) (UniProt Q02763)
MAPK9 (human) = MAPK9 (human) (UniProt P45984)
CAMK2G (human) = CAMK2G (human) (UniProt Q13555)
PRKCI (human) = PRKCI (human) (UniProt P41743)
NTRK1 (human) = NTRK1 (human) (UniProt P04629)
PRKCG (human) = PRKCG (human) (UniProt P05129)
IKBKB (human) = IKBKB (human) (UniProt O14920)
RPS6KA1 KD1 KD2 (human) = RPS6KA1 KD1 KD2 (human) (UniProt Q15418)
WNK3 (human) = WNK3 (human) (UniProt Q9BYP7)
CHEK2 (human) = CHEK2 (human) (UniProt O96017)
EPHA8 (human) = EPHA8 (human) (UniProt P29322)
NTRK3 (human) = NTRK3 (human) (UniProt Q16288)
PLK3 (human) = PLK3 (human) (UniProt Q9H4B4)
Sequence of PLK3 (human) (Q9H4B4 whole entry, looked up): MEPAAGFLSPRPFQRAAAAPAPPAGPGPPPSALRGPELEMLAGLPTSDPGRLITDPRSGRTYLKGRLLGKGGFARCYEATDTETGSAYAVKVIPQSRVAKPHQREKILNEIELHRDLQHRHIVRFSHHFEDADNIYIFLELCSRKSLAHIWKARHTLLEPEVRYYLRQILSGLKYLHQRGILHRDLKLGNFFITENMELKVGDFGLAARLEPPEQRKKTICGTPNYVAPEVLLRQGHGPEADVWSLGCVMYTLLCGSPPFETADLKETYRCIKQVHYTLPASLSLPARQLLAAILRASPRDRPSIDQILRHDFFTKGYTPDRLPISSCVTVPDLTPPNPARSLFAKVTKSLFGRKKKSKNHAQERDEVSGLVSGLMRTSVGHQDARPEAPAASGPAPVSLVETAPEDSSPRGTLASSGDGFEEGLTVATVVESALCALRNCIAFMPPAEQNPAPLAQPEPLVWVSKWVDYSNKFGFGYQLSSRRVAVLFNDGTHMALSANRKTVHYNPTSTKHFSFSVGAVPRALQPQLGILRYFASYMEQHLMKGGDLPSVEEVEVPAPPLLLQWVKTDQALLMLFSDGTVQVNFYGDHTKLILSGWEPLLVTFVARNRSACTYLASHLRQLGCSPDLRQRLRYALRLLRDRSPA

CAMK4 (human) = CAMK4 (human) (UniProt Q16566)
PAK3 (human) = PAK3 (human) (UniProt O75914)
YES1 (human) = YES1 (human) (UniProt P07947)
FGFR1 (human) = FGFR1 (human) (UniProt P11362)
STK4 (human) = STK4 (human) (UniProt Q13043)
EPHA1 (human) = EPHA1 (human) (UniProt P21709)
MATK (human) = MATK (human) (UniProt P42679)
FLT1 (human) = FLT1 (human) (UniProt P17948)
Sequence of FLT1 (human) (P17948 whole entry, looked up): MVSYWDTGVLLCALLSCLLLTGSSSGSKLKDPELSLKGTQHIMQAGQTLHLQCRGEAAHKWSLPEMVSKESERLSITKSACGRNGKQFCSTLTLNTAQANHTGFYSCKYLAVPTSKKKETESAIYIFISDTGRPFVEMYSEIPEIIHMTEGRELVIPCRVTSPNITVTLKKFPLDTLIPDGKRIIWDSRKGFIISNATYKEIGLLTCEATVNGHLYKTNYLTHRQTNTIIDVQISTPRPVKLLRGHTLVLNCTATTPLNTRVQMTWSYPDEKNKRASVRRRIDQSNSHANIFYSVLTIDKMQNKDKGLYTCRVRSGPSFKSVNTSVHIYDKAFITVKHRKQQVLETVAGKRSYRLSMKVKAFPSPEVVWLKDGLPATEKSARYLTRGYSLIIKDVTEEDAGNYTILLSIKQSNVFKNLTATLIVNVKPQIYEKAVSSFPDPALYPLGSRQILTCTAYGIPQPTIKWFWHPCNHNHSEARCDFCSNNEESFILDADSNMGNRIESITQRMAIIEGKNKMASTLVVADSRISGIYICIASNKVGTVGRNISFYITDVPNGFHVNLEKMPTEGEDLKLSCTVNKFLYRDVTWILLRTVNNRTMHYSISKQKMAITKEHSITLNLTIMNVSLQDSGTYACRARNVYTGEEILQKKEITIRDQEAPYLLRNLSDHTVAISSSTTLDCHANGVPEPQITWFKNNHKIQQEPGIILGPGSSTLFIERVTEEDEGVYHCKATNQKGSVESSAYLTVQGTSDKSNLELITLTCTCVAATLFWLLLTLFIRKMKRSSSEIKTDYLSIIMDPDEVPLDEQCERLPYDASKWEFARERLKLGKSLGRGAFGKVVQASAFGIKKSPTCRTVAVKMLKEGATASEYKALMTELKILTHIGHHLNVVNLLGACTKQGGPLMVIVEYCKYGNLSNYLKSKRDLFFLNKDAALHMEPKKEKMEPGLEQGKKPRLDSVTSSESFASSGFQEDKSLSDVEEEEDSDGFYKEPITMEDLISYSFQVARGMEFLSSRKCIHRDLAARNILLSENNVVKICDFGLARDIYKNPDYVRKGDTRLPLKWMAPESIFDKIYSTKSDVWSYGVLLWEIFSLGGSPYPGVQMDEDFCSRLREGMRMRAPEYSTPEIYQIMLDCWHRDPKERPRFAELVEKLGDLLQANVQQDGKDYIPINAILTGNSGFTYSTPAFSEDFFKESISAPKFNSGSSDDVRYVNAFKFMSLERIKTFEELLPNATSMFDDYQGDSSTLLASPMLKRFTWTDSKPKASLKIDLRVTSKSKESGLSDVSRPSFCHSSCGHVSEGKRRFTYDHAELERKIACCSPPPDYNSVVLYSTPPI

ABL2 (human) = ABL2 (human) (UniProt P42684)
BLK (human) = BLK (human) (UniProt P51451)
GRK4 (human) = GRK4 (human) (UniProt P32298)
DYRK2 (human) = DYRK2 (human) (UniProt Q92630)
MERTK (human) = MERTK (human) (UniProt Q12866)
JAK2 JH1 JH2 (human) = JAK2 JH1 JH2 (human) (UniProt O60674)
Sequence of JAK2 JH1 JH2 (human) (O60674 whole entry, looked up): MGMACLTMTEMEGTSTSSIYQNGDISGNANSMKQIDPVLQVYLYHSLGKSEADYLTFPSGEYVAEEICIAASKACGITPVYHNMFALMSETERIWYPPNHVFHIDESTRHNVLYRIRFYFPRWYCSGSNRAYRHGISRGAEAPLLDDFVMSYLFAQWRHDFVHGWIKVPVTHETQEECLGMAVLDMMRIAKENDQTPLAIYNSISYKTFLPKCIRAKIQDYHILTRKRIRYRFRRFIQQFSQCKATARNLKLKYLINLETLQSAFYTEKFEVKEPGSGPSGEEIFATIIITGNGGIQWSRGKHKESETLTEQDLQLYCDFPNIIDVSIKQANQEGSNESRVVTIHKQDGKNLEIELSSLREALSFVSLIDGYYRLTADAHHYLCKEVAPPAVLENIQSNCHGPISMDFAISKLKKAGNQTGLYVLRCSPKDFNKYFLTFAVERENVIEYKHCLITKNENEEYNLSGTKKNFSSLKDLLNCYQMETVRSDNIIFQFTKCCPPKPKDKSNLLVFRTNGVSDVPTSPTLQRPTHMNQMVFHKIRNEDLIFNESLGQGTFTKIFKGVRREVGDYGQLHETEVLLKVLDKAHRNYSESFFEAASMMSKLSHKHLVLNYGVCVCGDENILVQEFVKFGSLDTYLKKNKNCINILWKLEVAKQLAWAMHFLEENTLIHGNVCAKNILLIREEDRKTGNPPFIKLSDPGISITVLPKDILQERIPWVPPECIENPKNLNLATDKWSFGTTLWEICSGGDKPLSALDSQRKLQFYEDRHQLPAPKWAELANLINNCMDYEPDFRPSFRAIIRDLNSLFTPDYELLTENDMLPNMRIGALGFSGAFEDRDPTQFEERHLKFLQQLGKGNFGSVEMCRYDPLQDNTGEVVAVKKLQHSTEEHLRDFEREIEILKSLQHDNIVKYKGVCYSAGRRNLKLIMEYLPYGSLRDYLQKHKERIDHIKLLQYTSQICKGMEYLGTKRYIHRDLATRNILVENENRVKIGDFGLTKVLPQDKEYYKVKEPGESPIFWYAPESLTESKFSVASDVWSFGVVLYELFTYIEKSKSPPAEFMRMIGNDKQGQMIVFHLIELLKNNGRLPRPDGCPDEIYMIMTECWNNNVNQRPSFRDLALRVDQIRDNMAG

FGR (human) = FGR (human) (UniProt P09769)
KIT (human) = KIT (human) (UniProt P10721)
DAPK2 (human) = DAPK2 (human) (UniProt Q9UIK4)
CDK1 CCNA2 (human) = CDK1 CCNA2 (human) (UniProt P06493+P20248)
PAK4 (human) = PAK4 (human) (UniProt O96013)
DMPK (human) = DMPK (human) (UniProt Q09013)
AXL (human) = AXL (human) (UniProt P30530)
PTK2 (human) = PTK2 (human) (UniProt Q05397)
PIM2 (human) = PIM2 (human) (UniProt Q9P1W9)
Sequence of PIM2 (human) (Q9P1W9 whole entry, looked up): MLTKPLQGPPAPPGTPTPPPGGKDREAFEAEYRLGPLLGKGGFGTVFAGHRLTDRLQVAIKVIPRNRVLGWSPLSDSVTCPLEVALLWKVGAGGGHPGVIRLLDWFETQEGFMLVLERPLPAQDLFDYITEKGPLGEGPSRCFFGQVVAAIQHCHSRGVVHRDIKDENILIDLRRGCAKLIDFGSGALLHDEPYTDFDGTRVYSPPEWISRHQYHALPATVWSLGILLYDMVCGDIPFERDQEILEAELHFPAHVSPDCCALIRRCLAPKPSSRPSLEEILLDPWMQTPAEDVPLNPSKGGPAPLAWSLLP

AURKA (human) = AURKA (human) (UniProt O14965)
MAP2K1 (human) = MAP2K1 (human) (UniProt Q02750)
LIMK1 (human) = LIMK1 (human) (UniProt P53667)

Sequence of EPHA2 (human) (P29317 whole entry, looked up): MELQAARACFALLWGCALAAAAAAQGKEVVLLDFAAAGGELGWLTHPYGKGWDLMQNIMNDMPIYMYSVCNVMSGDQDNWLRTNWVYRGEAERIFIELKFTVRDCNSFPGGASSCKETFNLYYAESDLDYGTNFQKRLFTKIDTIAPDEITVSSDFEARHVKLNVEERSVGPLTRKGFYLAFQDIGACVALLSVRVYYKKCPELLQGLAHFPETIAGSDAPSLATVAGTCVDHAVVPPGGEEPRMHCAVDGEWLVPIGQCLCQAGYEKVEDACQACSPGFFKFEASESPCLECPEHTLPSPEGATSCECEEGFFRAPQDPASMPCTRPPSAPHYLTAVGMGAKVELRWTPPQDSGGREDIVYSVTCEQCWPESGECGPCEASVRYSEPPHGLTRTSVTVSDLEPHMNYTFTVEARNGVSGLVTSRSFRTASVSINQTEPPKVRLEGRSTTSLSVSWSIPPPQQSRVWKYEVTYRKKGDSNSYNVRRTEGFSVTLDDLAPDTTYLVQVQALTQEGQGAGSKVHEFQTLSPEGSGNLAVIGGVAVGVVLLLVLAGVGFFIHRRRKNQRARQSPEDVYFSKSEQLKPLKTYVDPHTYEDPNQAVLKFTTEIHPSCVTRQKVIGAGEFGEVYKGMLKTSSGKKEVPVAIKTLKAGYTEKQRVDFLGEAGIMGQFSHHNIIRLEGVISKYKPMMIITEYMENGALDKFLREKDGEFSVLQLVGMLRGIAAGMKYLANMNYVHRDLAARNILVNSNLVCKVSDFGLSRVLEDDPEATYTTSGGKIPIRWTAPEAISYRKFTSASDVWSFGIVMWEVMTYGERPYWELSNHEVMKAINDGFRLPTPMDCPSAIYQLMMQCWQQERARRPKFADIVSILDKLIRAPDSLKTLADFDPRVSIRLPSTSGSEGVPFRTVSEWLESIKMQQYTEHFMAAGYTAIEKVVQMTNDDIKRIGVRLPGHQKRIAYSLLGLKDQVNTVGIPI

## O=C1Nc2ccccc2/C1=C\c1c(Cl)[nH]c2ccccc12
BRSK1 (human)
  residual activity: 91.9%
EPHA2 (human)
  residual activity: 97.3%
KDR (human)
  residual activity: 96.3%
TEK (human)
  residual activity: 97.1%
MAPK9 (human)
  residual activity: 101%
CAMK2G (human)
  residual activity: 103%
PRKCI (human)
  residual activity: 99.2%
NTRK1 (human)
  residual activity: 90.7%
PRKCG (human)
  residual activity: 89.2%
IKBKB (human)
  residual activity: 106%
RPS6KA1 KD1 KD2 (human)
  residual activity: 105%
WNK3 (human)
  residual activity: 101%
CHEK2 (human)
  residual activity: 99.4%
EPHA8 (human)
  residual activity: 103%
NTRK3 (human)
  residual activity: 92.9%
PLK3 (human)
  residual activity: 101%
CAMK4 (human)
  residual activity: 102%
PAK3 (human)
  residual activity: 98.8%
YES1 (human)
  residual activity: 93.9%
FGFR1 (human)
  residual activity: 92%
STK4 (human)
  residual activity: 91%
EPHA1 (human)
  residual activity: 98.5%
MATK (human)
  residual activity: 89.5%
FLT1 (human)
  residual activity: 88.6%
ABL2 (human)
  residual activity: 91.4%
BLK (human)
  residual activity: 95.4%
GRK4 (human)
  residual activity: 102%
DYRK2 (human)
  residual activity: 103%
MERTK (human)
  residual activity: 88.2%
JAK2 JH1 JH2 (human)
  residual activity: 103%
FGR (human)
  residual activity: 90.5%
KIT (human)
  residual activity: 90.2%
DAPK2 (human)
  residual activity: 96.8%
CDK1 CCNA2 (human)
  residual activity: 103%
PAK4 (human)
  residual activity: 104%
DMPK (human)
  residual activity: 101%
AXL (human)
  residual activity: 97.8%
PTK2 (human)
  residual activity: 101%
PIM2 (human)
  residual activity: 106%
AURKA (human)
  residual activity: 108%
MAP2K1 (human)
  residual activity: 84.8%
LIMK1 (human)
  residual activity: 109%

## CSc1nc(-c2ccc(F)cc2)c(-c2ccnc(NC(C)c3ccccc3)c2)[nH]1 (stereo not given)
BRSK1 (human)
  residual activity: 84.6%
EPHA2 (human)
  residual activity: 98.8%
KDR (human)
  residual activity: 83.5%
TEK (human)
  residual activity: 90.5%
MAPK9 (human)
  residual activity: 31.1%
CAMK2G (human)
  residual activity: 102%
PRKCI (human)
  residual activity: 91.9%
NTRK1 (human)
  residual activity: 91.2%
PRKCG (human)
  residual activity: 101%
RPS6KA1 KD1 KD2 (human)
  residual activity: 99.4%
WNK3 (human)
  residual activity: 97.6%
CHEK2 (human)
  residual activity: 94.2%
EPHA8 (human)
  residual activity: 82.2%
NTRK3 (human)
  residual activity: 93.6%
PLK3 (human)
  residual activity: 99.7%
CAMK4 (human)
  residual activity: 106%
PAK3 (human)
  residual activity: 94.5%
YES1 (human)
  residual activity: 91.8%
FGFR1 (human)
  residual activity: 97.6%
STK4 (human)
  residual activity: 89.8%
EPHA1 (human)
  residual activity: 89.8%
MATK (human)
  residual activity: 87%
FLT1 (human)
  residual activity: 71.5%
ABL2 (human)
  residual activity: 95.7%
BLK (human)
  residual activity: 110%
GRK4 (human)
  residual activity: 90.6%
DYRK2 (human)
  residual activity: 96.1%
MERTK (human)
  residual activity: 93.1%
JAK2 JH1 JH2 (human)
  residual activity: 102%
FGR (human)
  residual activity: 88.1%
KIT (human)
  residual activity: 92.4%
DAPK2 (human)
  residual activity: 101%
CDK1 CCNA2 (human)
  residual activity: 78%
PAK4 (human)
  residual activity: 96.4%
DMPK (human)
  residual activity: 80%
AXL (human)
  residual activity: 109%
PTK2 (human)
  residual activity: 99.1%
PIM2 (human)
  residual activity: 87.9%
AURKA (human)
  residual activity: 99.9%
MAP2K1 (human)
  residual activity: 93.9%
LIMK1 (human)
  residual activity: 103%

## CS(=O)c1ccc(-c2nc(-c3ccc(F)cc3)c(-c3ccncc3)[nH]2)cc1 (stereo not given)
BRSK1 (human)
  residual activity: 97.9%
EPHA2 (human)
  residual activity: 94.8%
KDR (human)
  residual activity: 99.2%
TEK (human)
  residual activity: 94.5%
MAPK9 (human)
  residual activity: 100%
CAMK2G (human)
  residual activity: 82.2%
PRKCI (human)
  residual activity: 95.2%
NTRK1 (human)
  residual activity: 100%
PRKCG (human)
  residual activity: 90%
IKBKB (human)
  residual activity: 106%
RPS6KA1 KD1 KD2 (human)
  residual activity: 99.9%
WNK3 (human)
  residual activity: 99%
CHEK2 (human)
  residual activity: 99.6%
EPHA8 (human)
  residual activity: 101%
NTRK3 (human)
  residual activity: 98%
PLK3 (human)
  residual activity: 97.3%
CAMK4 (human)
  residual activity: 101%
PAK3 (human)
  residual activity: 102%
YES1 (human)
  residual activity: 92.6%
FGFR1 (human)
  residual activity: 90.7%
STK4 (human)
  residual activity: 101%
EPHA1 (human)
  residual activity: 97%
MATK (human)
  residual activity: 95.6%
FLT1 (human)
  residual activity: 95.2%
ABL2 (human)
  residual activity: 91.5%
BLK (human)
  residual activity: 102%
GRK4 (human)
  residual activity: 95.5%
DYRK2 (human)
  residual activity: 98.7%
MERTK (human)
  residual activity: 93.9%
JAK2 JH1 JH2 (human)
  residual activity: 99.5%
FGR (human)
  residual activity: 92.7%
KIT (human)
  residual activity: 91.3%
DAPK2 (human)
  residual activity: 102%
CDK1 CCNA2 (human)
  residual activity: 91.2%
DMPK (human)
  residual activity: 103%
AXL (human)
  residual activity: 101%
PTK2 (human)
  residual activity: 95.5%
PIM2 (human)
  residual activity: 104%
AURKA (human)
  residual activity: 99.5%
MAP2K1 (human)
  residual activity: 94.8%
LIMK1 (human)
  residual activity: 91.3%

## CCN1/C(=C/C(C)=O)Sc2ccc(OC)cc21
BRSK1 (human)
  residual activity: 89.4%
EPHA2 (human)
  residual activity: 99.1%
KDR (human)
  residual activity: 104%
TEK (human)
  residual activity: 102%
MAPK9 (human)
  residual activity: 101%
CAMK2G (human)
  residual activity: 90.4%
PRKCI (human)
  residual activity: 97.8%
NTRK1 (human)
  residual activity: 85.7%
PRKCG (human)
  residual activity: 75.4%
IKBKB (human)
  residual activity: 102%
RPS6KA1 KD1 KD2 (human)
  residual activity: 94%
WNK3 (human)
  residual activity: 88.1%
CHEK2 (human)
  residual activity: 104%
EPHA8 (human)
  residual activity: 98.5%
NTRK3 (human)
  residual activity: 91.9%
PLK3 (human)
  residual activity: 99.4%
CAMK4 (human)
  residual activity: 99.9%
PAK3 (human)
  residual activity: 96.3%
YES1 (human)
  residual activity: 91.8%
STK4 (human)
  residual activity: 97.8%
EPHA1 (human)
  residual activity: 95.8%
MATK (human)
  residual activity: 89.2%
FLT1 (human)
  residual activity: 88.4%
ABL2 (human)
  residual activity: 96.1%
BLK (human)
  residual activity: 95.4%
GRK4 (human)
  residual activity: 96.2%
DYRK2 (human)
  residual activity: 19.5%
MERTK (human)
  residual activity: 88.6%
JAK2 JH1 JH2 (human)
  residual activity: 97.1%
FGR (human)
  residual activity: 91.7%
KIT (human)
  residual activity: 67.8%
DAPK2 (human)
  residual activity: 90.3%
CDK1 CCNA2 (human)
  residual activity: 97.5%
PAK4 (human)
  residual activity: 108%
DMPK (human)
  residual activity: 101%
AXL (human)
  residual activity: 105%
PTK2 (human)
  residual activity: 108%
PIM2 (human)
  residual activity: 102%
AURKA (human)
  residual activity: 108%
MAP2K1 (human)
  residual activity: 98.7%
LIMK1 (human)
  residual activity: 108%
